Test results: patent US20150038527A1, “FUROPYRIDINE DERIVATIVES” (Merck Patent GmbH, priority 2012, published 2015)

Molecular target: T1, SYK (Homo sapiens, UniProt P43405)
T1 construct: 2.5 nM SYK, 400 nM Biotin-Aha-Aha-KEDPDYEWPSAKK and 10 μM ATP
Assay: SYK Flash Plate Assay (enzyme assay)
Format: biochemical
Experimental: The kinase assay is performed either as 384-well Flashplate assay (for e.g. Topcount measurement) or as 384-well Image-Flashplate assay (for LEADseeker measurement).
2.5 nM SYK, 400 nM Biotin-Aha-Aha-KEDPDYEWPSAKK and 10 μM ATP (spiked with 0.3 μCi 33P-ATP/well) are incubated in a total volume of 50 μl (60 mM Hepes, 10 mM MgCl2, 1.2 mM Dithiothreitol, 0.02% Brij35, 0.1% BSA, pH 7.5) with or without test compound for 1 hours at 30° C. The reaction is stopped with 25 μl 200 mM EDTA. After 30 Min at 30° C. the liquid is removed and each well washed thrice with 100 μl 0.9% sodium chloride solution. Non-specific reaction is determined in presence of 0.1 μM Staurosporine. Radioactivity is measured with Topcount (when using Flashplates) or with LEADseeker (when using Image-Flashplates) respectively. Results (e.g. IC50-values) are calculated with program tools provided by the IT-department (e.g. Symyx Assay Explorer, Genedata Screener).

IC50 [µM]	SMILES
0.1 to 0.3	COc1ccc(C(N)=O)cc1-c1cc2nccc(-c3cnc[nH]3)c2o1 [Compound A93, 3-[7-(3H-imidazol-4-yl)-furo[3,2-b]pyridin-2-yl]-4-methoxy-benzamide]
0.1 to 0.3	COc1ccc(C(N)=O)cc1-c1cc2nccc(-c3cc[nH]c3)c2o1 [Compound A94, 4-methoxy-3-[7-(1H-pyrrol-3-yl)-furo[3,2-b]pyridin-2-yl]-benzamide]
< 0.1	COc1ccc(C#N)cc1-c1cc2nccc(-c3cc[nH]n3)c2o1 [Compound A88, 4-methoxy-3-[7-(1H-pyrazol-3-yl)-furo[3,2-b]pyridin-2-yl]-benzonitrile]
0.1 to 0.3	COc1cc(-c2cc3nccc(-c4cnc[nH]4)c3o2)cc(OC)c1OC [Compound A91, 7-(3H-imidazol-4-yl)-2-(3,4,5-trimethoxy-phenyl)-furo[3,2-b]pyridine]
< 0.1	COc1cc(-c2cc3nccc(-c4cc[nH]c4)c3o2)cc(OC)c1OC [Compound A83, 7-(1H-pyrrol-3-yl)-2-(3,4,5-trimethoxy-phenyl)-furo[3,2-b]pyridine]
3 to 50	COc1cc(-c2cc3nccc(-c4nnc(CCN)o4)c3o2)cc(OC)c1OC [Compound A102, 2-{5-[2-(3,4,5-trimethoxy-phenyl)-furo[3,2-b]pyridin-7-yl]-[1,3,4]oxadiazol-2-yl}-ethylamine]
< 0.1	COc1ccc(C(N)=O)cc1-c1cc2nccc(-c3cc[nH]n3)c2o1 [Compound A72, 4-methoxy-3-[7-(1H-pyrazol-3-yl)-furo[3,2-b]pyridin-2-yl]-benzamide]
< 0.1	COc1ccc(C(N)=O)cc1-c1cc2nccc(-c3ccnc(NCCN)c3)c2o1 [Compound A80, 3-{7-[2-(2-amino-ethylamino)-pyridin-4-yl]-furo[3,2-b]pyridin-2-yl}-4-methoxybenzamide]
0.3 to 3	COc1cc2[nH]cnc2cc1-c1ccnc2cc(-c3cc(OC)c(OC)c(OC)c3)oc12 [Compound A87, 7-(6-methoxy-1H-benzoimidazol-5-yl)-2-(3,4,5-trimethoxy-phenyl)-furo[3,2-b]pyridine]
< 0.1	COc1cc(-c2cc3nccc(-c4c(OC)cncc4OC)c3o2)cc(OC)c1OC [Compound A103, 7-(3,5-dimethoxy-pyridin-4-yl)-2-(3,4,5-trimethoxy-phenyl)-furo[3,2-b]pyridine]
3 to 50	COc1cccc(OC)c1-c1ccnc2cc(-c3cc(C(N)=O)ccc3C(C)C)oc12 [Compound A74, 3-[7-(2,6-dimethoxy-phenyl)-furo[3,2-b]pyridin-2-yl]-4-isopropyl-benzamide]
< 0.1	COc1ccc(C(N)=O)cc1-c1cc2nccc(-c3c(OC)cc(C(=O)NCCN)cc3OC)c2o1 [Compound A76, N-(2-amino-ethyl)-4-[2-(5-carbamoyl-2-methoxy-phenyl)-furo[3,2-b]pyridin-7-yl]-3,5-dimethoxy-benzamide]
< 0.1	COc1ccc(-c2noc(CN)n2)cc1-c1cc2nccc(-c3c(OC)cccc3OC)c2o1 [Compound A106, C-(3-{3-[7-(2,6-dimethoxy-phenyl)-furo[3,2-b]pyridin-2-yl]-4-methoxy-phenyl}-[1,2,4]oxadiazol-5-yl)-methylamine]
0.3 to 3	COc1cc(-c2cc3nccc(-c4nnc(C)o4)c3o2)cc(OC)c1OC [Compound A99, 7-(5-methyl-[1,3,4]oxadiazol-2-yl)-2-(3,4,5-trimethoxy-phenyl)-furo[3,2-b]pyridine]
< 0.1	COc1ccc(C(N)=O)cc1-c1cc2nccc(-c3ccnc(N[C@H]4CCCC[C@H]4N)c3)c2o1 [Compound A96, 3-{7-[2-((1S,2R)-2-amino-cyclohexylamino)-pyridin-4-yl]-furo[3,2-b]pyridin-2-yl}-4-methoxy-benzamide]
< 0.1	COc1ccc(-c2noc(=O)[nH]2)cc1-c1cc2nccc(-c3cc[nH]n3)c2o1 [Compound A105, 3-{4-methoxy-3-[7-(1H-pyrazol-3-yl)-furo[3,2-b]pyridin-2-yl]-phenyl}-4H-[1,2,4]oxadiazol-5-one]
0.3 to 3	COc1ccc(C(=O)NCCN)cc1-c1cc2nccc(-c3c(OC)cccc3OC)c2o1 [Compound A71, N-(2-amino-ethyl)-3-[7-(2,6-dimethoxy-phenyl)-furo[3,2-b]pyridin-2-yl]-4-methoxy-benzamide]

Continued, compound first:

SMILES	IC50 [µM]
COc1cc(-c2cc3nccc(-c4ccc5[nH]c(=O)n(CCN)c5c4)c3o2)cc(OC)c1OC [Compound A6, 1-(2-amino-ethyl)-6-[2-(3,4,5-trimethoxy-phenyl)-furo[3,2-b]pyridin-7-yl]-1,3-dihydro-benzoimidazol-2-one]	3 to 50
COc1cc(-c2cc3nccc(-c4ccnc(O)c4)c3o2)cc(OC)c1OC [Compound A39, 4-[2-(3,4,5-trimethoxy-phenyl)-furo[3,2-b]pyridin-7-yl]-pyridin-2-ol]	0.3 to 3
COc1cc(-c2cc3nccc(-c4cc(F)cc(C(=O)N[C@@H]5CCCC[C@@H]5N)c4)c3o2)cc(OC)c1OC [Compound A35, N-((1R,2S)-2-amino-cyclohexyl)-3-fluoro-5-[2-(3,4,5-trimethoxy-phenyl)furo[3,2-b]pyridin-7-yl]-benzamide]	0.3 to 3
COc1ccc(C(=O)NCCCN)cc1-c1ccnc2cc(-c3cc(OC)c(OC)c(OC)c3)oc12 [Compound A58, N-(3-amino-propyl)-4-methoxy-3-[2-(3,4,5-trimethoxy-phenyl)-furo[3,2-b]pyridin-7-yl]-benzamide]	0.3 to 3
COc1ccc(C(=O)NCC(C)(C)N)cc1-c1cc2nccc(-c3c(OC)cccc3OC)c2o1 [Compound A68, N-(2-amino-2-methyl-propyl)-3-[7-(2,6-dimethoxy-phenyl)-furo[3,2-b]pyridin-2-yl]-4-methoxy-benzamide]	0.3 to 3
COc1cc(-c2cc3nccc(-c4cccc(C(=O)N[C@@H]5COC[C@@H]5N)c4)c3o2)cc(OC)c1OC [Compound A67, N-((3S,4R)-4-amino-tetrahydro-furan-3-yl)-3-[2-(3,4,5-trimethoxy-phenyl)furo[3,2-b]pyridin-7-yl]-benzamide]	3 to 50
COc1cc(O)ccc1-c1cc2nccc(-c3ccc4[nH]cnc4c3)c2o1 [Compound A14, 4-[7-(1H-benzoimidazol-5-yl)-furo[3,2-b]pyridin-2-yl]-3-methoxy-phenol]	0.3 to 3
COc1cc(-c2cc3nccc(-c4cc5cn[nH]c5cc4C)c3o2)cc(OC)c1OC [Compound A13, 7-(6-methyl-1H-indazol-5-yl)-2-(3,4,5-trimethoxy-phenyl)-furo[3,2-b]pyridine]	0.3 to 3
COc1cc(-c2cc3ncc(-c4cn[nH]c4)cc3o2)cc(OC)c1OC [Compound A59, 6-(1H-pyrazol-4-yl)-2-(3,4,5-trimethoxy-phenyl)-furo[3,2-b]pyridine]	3 to 50
COc1ccc(Cl)c(-c2cc3nccc(-c4cccc(C(=O)N[C@@H]5CCCC[C@@H]5N)c4)c3o2)c1 [Compound A25, N-((1R,2S)-2-amino-cyclohexyl)-3-[2-(2-chloro-5-methoxy-phenyl)-furo[3,2-b]pyridin-7-yl]-benzamide]	0.3 to 3
CCc1ccc(OC)c(-c2cc3nccc(-c4cc(CC)ccc4OC)c3o2)c1 [Compound A30, 2,7-bis-(5-ethyl-2-methoxy-phenyl)-furo[3,2-b]pyridine]	3 to 50
COc1cc(-c2cc3nccc(-c4cc(OCCN)ccc4F)c3o2)cc(OC)c1OC [Compound A44, 2-{4-fluoro-3-[2-(3,4,5-trimethoxy-phenyl)-furo[3,2-b]pyridin-7-yl]-phenoxy}-ethylamine]	0.3 to 3
COc1ccc(C(N)=O)cc1-c1cc2nccc(-c3cnc(F)cc3C)c2o1 [Compound A54, 3-[7-(6-fluoro-4-methyl-pyridin-3-yl)-furo[3,2-b]pyridin-2-yl]-4-methoxybenzamide]	3 to 50
COc1ccc(C(N)=O)cc1-c1cc2nccc(-c3c(OC)cccc3OC)c2o1 [Compound A62, 3-[7-(2,6-dimethoxy-phenyl)-furo[3,2-b]pyridin-2-yl]-4-methoxy-benzamide]	0.3 to 3
COc1cc(-c2cc3nccc(-c4cccc(C(=O)NC[C@@H](O)CO)c4)c3o2)cc(OC)c1OC [Compound A17, N—((R)-2,3-dihydroxy-propyl)-3-[2-(3,4,5-trimethoxy-phenyl)-furo[3,2-b]pyridin-7-yl]-benzamide]	3 to 50
COc1cc(-c2cc3nccc(-c4cccc(C(=O)NC[C@H](O)[C@@H](O)[C@H](O)[C@H](O)CO)c4)c3o2)cc(OC)c1OC [Compound A28, N-((2S,3R,4R,5R)-2,3,4,5,6-pentahydroxy-hexyl)-3-[2-(3,4,5-trimethoxyphenyl)-furo[3,2-b]pyridin-7-yl]-benzamide]	3 to 50
COc1cc(OCCN)ccc1-c1cc2nccc(-c3cccc(C(=O)NCCO)c3)c2o1 [Compound A29, 3-{2-[4-(2-amino-ethoxy)-2-methoxy-phenyl]-furo[3,2-b]pyridin-7-yl}-N-(2-hydroxy-ethyl)-benzamide]	3 to 50
COC[C@@H](N)CNC(=O)c1cccc(-c2ccnc3cc(-c4cc(OC)c(OC)c(OC)c4)oc23)c1 [Compound A26, N—((S)-2-amino-3-methoxy-propyl)-3-[2-(3,4,5-trimethoxy-phenyl)-furo[3,2-b]pyridin-7-yl]-benzamide]	3 to 50
COc1cc(-c2cc3nccc(-c4cccc(C(=O)N[C@@H]5CCC[C@H]5O)c4)c3o2)cc(OC)c1OC [Compound A12, N-((1R,2R)-2-hydroxy-cyclopentyl)-3-[2-(3,4,5-trimethoxy-phenyl)-furo[3,2-b]pyridin-7-yl]-benzamide]	0.3 to 3
